Several values for one entry are separate records, joined by “and”; a condition that tells them apart may be missing. Equal values may be shown once.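 Cells were grown in 96-well plates and exposed to each compound for 48 hours at five concentrations; endpoints were interpolated linearly between bracketing concentrations, or set to the highest concentration if not reached. GI50 = concentration required for 50% inhibition of growth. Definition used: TGI = concentration required for complete inhibition of growth.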
Columns and labels:
Test in all cases: inhibition of tumour cell growth, NCI panel, 48 h
[1] = system: MDA-N
[2] = system: DMS 273 small cell lung
[3] = system: KM20L2 colon
[4] = system: DMS 114 small cell lung
[5] = system: LXFL 529 NSCLC
[6] = system: SNB-78 CNS
[7] = system: HOP-18 NSCLC
[8] = system: XF 498 CNS
[9] = system: RXF-631 renal
[10] = system: SN12K1 renal

SMILES	TGI [1]	TGI [2]	TGI [3]	TGI [4]	TGI [5]	TGI [6]	TGI [7]	TGI [8]	TGI [9]	further results
N[C@H]1CCC[C@@H](O)C1O (some centres undefined)	> 100 µM	–	–	–	–	–	–	–	–	–
Cc1cc(NS(=O)(=O)c2ccc(NC(=O)c3ccc(Cl)c4c(Nc5ccc(S(=O)(=O)Nc6cc(C)on6)cc5)c5ccccc5nc34)cc2)no1	–	42 µM	40 µM	42.5 µM	48.5 µM	84.1 µM	30.4 µM	75.9 µM	–	–
CC(C)(C)c1cc(C2c3cc4c(cc3OC(O)(CO)C2C(=O)O)OCO4)cc(C(C)(C)C)c1O (centres undefined) (tested in a mixture with another compound)	–	41 µM	33.4 µM	23.8 µM	–	–	20.3 µM	–	43.3 µM	–
CC(C)(C)C1=CC(=N/N=c2\scc(-c3ccccc3)n2Cc2ccccc2)C=C(C(C)(C)C)C1=O	–	> 100 µM	> 100 µM	> 100 µM	> 100 µM	–	–	> 100 µM	–	–
N#CN1CC[C@@H]2CC3(CCC2C1)OCCO3 (some centres undefined)	–	> 100 µM	> 100 µM	> 100 µM	> 100 µM	> 100 µM	> 100 µM	> 100 µM	> 100 µM	–
NC(CSC(c1ccccc1)(c1ccccc1)c1ccccc1)C(=O)O (centres undefined)	12.5 µM	1.55 µM	5.47 µM	–	–	95.9 µM	116 µM	7.77 µM	–	GI50 [6]: 10.8 µM; GI50 [8]: 0.711 µM and 0.959 µM; TGI [10]: 2.21 µM
COc1ccc2nc3cc(Cl)ccc3c(Sc3ccc(N)cc3)c2c1	–	23.5 µM	17.9 µM	19 µM	16 µM	34 µM	25.3 µM	27.5 µM	34.4 µM	–
O=C1c2ccccc2C(=O)c2c1ccc1conc21	1.41 µM	8.17 µM	28.8 µM	3.42 µM	3.83 µM	10.3 µM	26.2 µM	–	> 26.5 µM	–
C=CC[P@]1(=O)O[C@H](c2ccccc2)C(C)N1C(C)C (some centres undefined)	–	–	> 100 µM	> 100 µM	> 100 µM	–	> 100 µM	> 100 µM	> 100 µM	–
CC1=CC(=O)NP(=O)(Oc2ccc(Cl)cc2)N1 (centres undefined)	–	> 100 µM	> 100 µM	> 100 µM	> 100 µM	> 100 µM	> 100 µM	> 100 µM	–	–
O=C(Nc1cc(Cl)c(I)c(Cl)c1)C(F)(F)F	> 100 µM	–	–	–	–	–	–	–	–	–
CC(=O)/C=C1\CC(=O)N(C)c2ccccc2N1	–	> 100 µM	–	64.3 µM	> 100 µM	> 100 µM	–	> 100 µM	–	–
O=S(=O)(F)Cc1ccccc1	> 100 µM	–	–	–	–	–	–	–	–	–
O=C(NCCCN1CCN(CCCNC(=O)c2cccc3ccccc23)CC1)c1cccc2ccccc12	–	–	73.5 µM	> 100 µM	> 100 µM	> 100 µM	> 100 µM	93.9 µM	> 100 µM	–
O=C1OC(c2ccc([N+](=O)[O-])cc2)=N/C1=C\c1ccc(Cl)cc1	> 100 µM	–	–	–	–	–	–	–	–	–
COCN1COCN(C)C1=O	–	> 100 µM	> 100 µM	> 100 µM	–	> 100 µM	> 100 µM	> 100 µM	–	–
O=C(O)/C=C/c1c2ccc(=O)c(O)c-2oc2c(O)c(O)ccc12	34.5 µM	–	–	–	–	–	–	–	–	–
CC(=O)CC[N+](C)(C)C	> 100 µM	53.2 µM	> 56.6 µM	–	27.2 µM	19.7 µM	30.5 µM	–	> 100 µM	–
CCN(Cc1cc(Cl)cc(C)c1O)Cc1c(O)ccc2ccccc12	35.8 µM	–	–	–	–	–	–	–	–	–
Cn1cc(-c2ccc3c4ccccc4n(C)c3c2)c2ccccc21	–	–	> 100 µM	> 100 µM	> 100 µM	> 100 µM	> 100 µM	–	–	–
COC1CCCc2c(OC(C)=O)ccc(OC(C)=O)c21 (centres undefined)	–	–	> 100 µM	> 100 µM	> 100 µM	> 100 µM	–	–	–	–
O=C(O)c1cccc([As]=[As]c2cccc(C(=O)O)c2)c1 (centres undefined)	> 100 µM	–	–	–	–	–	–	–	–	–
O=CNC(Cc1cnc[nH]1)C(=O)O (centres undefined)	> 100 µM	–	–	–	–	–	–	–	–	–
CC(=O)OC1(Sc2ccccc2)CC2[C@H]3COC(C)(C)O[C@H]3CC[C@@]2(C)CC1=O (some centres undefined)	–	> 100 µM	> 100 µM	> 100 µM	> 100 µM	> 100 µM	–	57.3 µM	> 100 µM	–

SMILES	TGI [1]	TGI [2]	TGI [3]	TGI [4]	TGI [5]	TGI [6]	TGI [7]	TGI [8]	TGI [9]	further results
COc1ccc2nc3cc(Cl)ccc3c(Nc3ccccc3-c3ccccc3Nc3c4ccc(Cl)cc4nc4ccc(OC)cc34)c2c1	24.7 µM	> 54.9 µM	> 81.4 µM	–	> 50.5 µM	> 100 µM	> 100 µM	> 76.2 µM	> 100 µM	–
O=C(n1c2ccccc2c2n[nH]c(=S)nc21)C(F)(F)F	–	> 100 µM	–	> 100 µM	> 100 µM	> 100 µM	–	> 100 µM	–	–
CC(=O)c1cc2c(Br)cccc2oc1=O	> 100 µM	–	–	–	–	–	–	–	–	–
COc1ccc2[nH]c3c(C)c4c(c(C)c3c2c1)CN(C)C=C4	34.6 µM	10.3 µM	21.1 µM	3.05 µM	3.61 µM	4.91 µM	47.7 µM	5.78 µM	–	–
CCC/C=C/C=C/C(=O)OC1/C(=C/C(=O)OC)CC2CC(C(C)O)OC(=O)CC(O)CC3CC(OC(C)=O)C(C)(C)C(O)(CC4C/C(=C/C(=O)OC)CC(/C=C/C(C)(C)C1(O)O2)O4)O3 (centres undefined)	11 µM and > 12.5 µM	> 10.9 µM and 11 µM	> 10.9 µM and 11 µM	> 10.9 µM and 8.97 µM	–	7.22 µM and 11 µM	2.52 µM and 10.8 µM	11 µM	–	GI50 [1]: > 12.5 µM; GI50 [3]: > 10.9 µM and 6.51 µM; GI50 [4]: > 10.9 µM and 2.92 µM; GI50 [6]: 5.56 µM and 10.3 µM; GI50 [7]: 1.76 µM and 6.05 µM; GI50 [8]: 4.43 µM; GI50 [10]: > 11 µM; TGI [10]: > 11 µM
O=c1[nH]c2nc3ccccc3c(=O)n2nc1Cc1ccccc1	–	> 100 µM	> 100 µM	> 100 µM	> 100 µM	> 100 µM	–	–	–	–
O=C(O)CCC(O)=C1S(=O)(=O)OCCOS1(=O)=O	> 100 µM	> 100 µM	> 100 µM	> 100 µM	> 100 µM	> 100 µM	> 100 µM	–	–	–
CCOC(=O)c1ccc(N=Cc2ccc(N(CCC#N)S(=O)(=O)c3ccccc3)cc2C)cc1	–	> 100 µM	> 100 µM	> 100 µM	> 100 µM	> 100 µM	–	> 100 µM	> 100 µM	–
Cc1nc(-n2nc(-c3ccccc3)cc2-c2ccccc2)sc1C(=O)CC(=O)C(=O)Nc1ccc(Cl)c(Cl)c1	–	> 100 µM	> 100 µM	> 100 µM	> 100 µM	> 100 µM	> 100 µM	–	> 100 µM	–
CC1(Cl)C(=O)NC(=O)N([C@H]2C[C@H](O)[C@@H](CO)O2)C1N=[N+]=[N-] (some centres undefined)	–	> 100 µM	> 100 µM	> 100 µM	> 100 µM	> 100 µM	> 100 µM	> 100 µM	> 100 µM	–
N.N.N.N.N#N.N#N.[Cl-].[Os+6]	–	> 100 µM	> 100 µM	–	> 100 µM	> 100 µM	> 100 µM	–	–	GI50 [2]: > 100 µM; GI50 [3]: > 100 µM; GI50 [5]: > 100 µM; GI50 [6]: > 100 µM; GI50 [7]: 23.1 µM
Cc1cccc(NC(=O)c2c(N)[n+]([O-])c3ccccc3[n+]2[O-])c1	–	22.1 µM	30.5 µM	–	22.9 µM	35.4 µM	32.2 µM	24.5 µM	3.24 µM	–
O=C(c1ccc(Cl)cc1Cl)N1CCN(C(=O)c2ccc(Cl)cc2Cl)C1=S	43.8 µM	–	–	–	–	–	–	–	–	GI50 [1]: 20 µM
COc1ccc2c(=O)c(-c3cc(OC)c(OC)cc3OC)coc2c1	> 100 µM	> 100 µM	–	> 24.6 µM	> 100 µM	> 100 µM	–	8.07 µM	> 100 µM	–
Nc1nc(N)nc(CCCCc2nc(N)nc(N)n2)n1	> 100 µM	–	–	–	–	–	–	–	–	–
O=C1c2ccccc2C(=O)N1c1ccc(Cc2ccc(N3C(=O)c4ccccc4C3=O)cc2)cc1	> 100 µM	–	–	–	–	–	–	–	–	–
O=C(c1ccccc1)c1nc2c(Cl)ccc(Cl)c2cc1C(Br)Br	–	3.14 µM	2.51 µM	6.19 µM	1.55 µM	5.94 µM	3.17 µM	2.29 µM	3.86 µM	–
COC(=O)NC1(NC(=O)OC)NC(=O)c2ccccc2N1	> 100 µM	–	–	–	–	–	–	–	–	–
Cc1nc2ccccc2c(=O)n1/N=C(\N=Nc1ccc(Cl)cc1)c1cccc(-c2ccco2)c1	–	> 100 µM	> 100 µM	–	> 100 µM	–	> 100 µM	–	–	–
Cn1c(=O)nc2n(-c3ccc(Br)cc3)c3ccccc3nc-2c1=O	–	14 µM	8.74 µM	4.39 µM	25.4 µM	35.1 µM	18.8 µM	25 µM	29.8 µM	–
CCCCC[C@@H]1CCCC2NC(CCCCCO[Si](c3ccccc3)(c3ccccc3)C(C)(C)C)CCC21 (some centres undefined)	–	32.4 µM	23.8 µM	28.1 µM	–	30.2 µM	–	–	27.7 µM	–
Cc1c(C)c2cc3c(=O)c(CCl)coc3c(C)c2oc1=O	–	–	> 100 µM	> 100 µM	> 100 µM	> 100 µM	> 100 µM	–	> 100 µM	–
COc1ccc([N+](=O)[O-])c2c(NCCCN(C)C)c(C)c(C)nc12	> 100 µM	–	–	–	–	–	–	–	–	–

— PubChem BioAssay (NCI)
